# Assay results published in PMC11354310, “The Discovery of a Specific CKIP-1 Ligand for the Potential Treatment of Disuse Osteoporosis” (International Journal of Molecular Sciences, 2024).
# Assays:
# [1] = target: T1, CKIP-1 (casein kinase 2 interacting protein-1) (Homo sapiens, UniProt Q53GL0); assay: SPR (Biacore T200, GST-CKIP-1-C1 captured on CM5 via anti-GST); supported by CETSA in HEK293T cells with Flag-CKIP-1; format: binding
# T1 construct: gene PLEKHO1; GST-CKIP-1-C1 (C-terminal leucine zipper region, 345–409)
# T1 sequence (Q53GL0 345-409): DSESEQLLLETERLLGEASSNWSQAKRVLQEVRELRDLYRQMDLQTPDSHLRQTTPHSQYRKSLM
# [2] = target: T1, CKIP-1 (casein kinase 2 interacting protein-1); assay: SPR (Biacore T200, GST-CKIP-1-C1 captured on CM5 via anti-GST); format: binding
Kd [1] [nM],Kd [2] [nM],SMILES
27.1,,CNC(=O)c1c(F)ccc(NS(=O)(=O)c2ccc(OC)nc2)c1-c1cc(C(F)(F)F)cc(C(F)(F)F)c1 [C77]
,2170,CNC(=O)C1(NC(=O)/C=C/c2cc(I)cc(OC)c2O)CC1 [C170]
